Results reported in ChEMBL document CHEMBL4184156, “Repurposing Hsp90 inhibitors as antibiotics targeting histidine kinases” (Bioorg Med Chem Lett, 2017).
Values after ≈ are worked out from the molar mass of the structure shown. Active and inactive are the calls of the source. The calls are words filed in the database; no cut-off is given here.

Assays:
[1] = molecular target: T1, Sensor protein kinase WalK family protein (Streptococcus pneumoniae PCS8203, UniProt A0A0H2UQD0); experiment: Inhibition of Streptococcus pneumoniae VicK preincubated for 30 mins followed by [gamma-33P]ATP addition after 30 mins by SDS-PAGE method
T1 sequence (A0A0H2UQD0 whole entry): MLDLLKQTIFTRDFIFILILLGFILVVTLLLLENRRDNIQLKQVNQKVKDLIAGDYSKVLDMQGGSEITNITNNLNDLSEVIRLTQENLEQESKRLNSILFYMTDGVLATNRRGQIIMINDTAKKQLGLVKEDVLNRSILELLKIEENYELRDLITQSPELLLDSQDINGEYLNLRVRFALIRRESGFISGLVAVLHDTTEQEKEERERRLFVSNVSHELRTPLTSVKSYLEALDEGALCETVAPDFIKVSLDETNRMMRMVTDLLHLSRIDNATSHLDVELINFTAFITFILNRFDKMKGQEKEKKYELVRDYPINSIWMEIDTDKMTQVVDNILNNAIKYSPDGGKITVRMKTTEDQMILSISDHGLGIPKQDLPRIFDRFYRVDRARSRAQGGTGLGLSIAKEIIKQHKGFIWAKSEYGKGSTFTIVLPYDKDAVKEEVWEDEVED

Bacillus subtilis [2] = experiment: Antimicrobial activity against Bacillus subtilis 3610 after 20 hrs by Mueller-Hinton Broth microdilution method; assay type: functional; details: subsp. subtilis str. NCIB 3610, 20 h
Escherichia coli [3] = experiment: Antimicrobial activity against Escherichia coli DC2 after 20 hrs by Mueller-Hinton Broth microdilution method; assay type: functional; details: DC2, 20 h
[4] = molecular target: T2, Virulence sensor histidine kinase PhoQ (Salmonella typhimurium (strain LT2 / SGSC1412 / ATCC 700720)) (UniProt P0DM80); experiment: (§1) Inhibition of recombinant Salmonella typhimurium N-terminal His6-SUMO-tagged DHp-catalytic domain PhoQ (257 to 487 residues) autophosphorylation expressed in Escherichia coli BL21(DE3) at 500 uM preincubated for 10 mins followed by [gamma-32P]-ATP addition after 30 mins by phosphotransferase dot blot assay relative to control; parameters: scale not given: the % may be the effect or the level left; details: Salmonella enterica subsp. enterica serovar Typhimurium
T2 sequence (whole entry): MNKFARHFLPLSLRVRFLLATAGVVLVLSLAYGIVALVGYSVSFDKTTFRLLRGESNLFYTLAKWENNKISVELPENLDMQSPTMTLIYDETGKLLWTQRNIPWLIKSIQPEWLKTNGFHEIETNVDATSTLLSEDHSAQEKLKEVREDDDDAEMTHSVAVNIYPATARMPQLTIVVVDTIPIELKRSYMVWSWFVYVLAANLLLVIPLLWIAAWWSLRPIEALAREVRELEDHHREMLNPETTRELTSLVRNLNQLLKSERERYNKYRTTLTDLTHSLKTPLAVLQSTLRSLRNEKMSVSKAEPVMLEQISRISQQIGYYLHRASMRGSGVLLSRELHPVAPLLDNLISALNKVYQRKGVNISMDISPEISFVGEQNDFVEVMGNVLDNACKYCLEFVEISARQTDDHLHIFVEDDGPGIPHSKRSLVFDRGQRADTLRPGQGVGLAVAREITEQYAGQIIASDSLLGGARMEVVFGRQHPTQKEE

[5] = molecular target: T3, Histidine protein kinase DivJ (Caulobacter vibrioides (strain ATCC 19089 / CB15) (Caulobactercrescentus)) (UniProt Q03228); experiment: as §1, with “Caulobacter vibrioides” for “Salmonella typhimurium”, “His6-tagged” for “His6-SUMO-tagged”, “DivJ (188” for “PhoQ (257”, “585” for “487”, “15” for “30”; parameters: scale not given: the % may be the effect or the level left
T3 sequence (whole entry): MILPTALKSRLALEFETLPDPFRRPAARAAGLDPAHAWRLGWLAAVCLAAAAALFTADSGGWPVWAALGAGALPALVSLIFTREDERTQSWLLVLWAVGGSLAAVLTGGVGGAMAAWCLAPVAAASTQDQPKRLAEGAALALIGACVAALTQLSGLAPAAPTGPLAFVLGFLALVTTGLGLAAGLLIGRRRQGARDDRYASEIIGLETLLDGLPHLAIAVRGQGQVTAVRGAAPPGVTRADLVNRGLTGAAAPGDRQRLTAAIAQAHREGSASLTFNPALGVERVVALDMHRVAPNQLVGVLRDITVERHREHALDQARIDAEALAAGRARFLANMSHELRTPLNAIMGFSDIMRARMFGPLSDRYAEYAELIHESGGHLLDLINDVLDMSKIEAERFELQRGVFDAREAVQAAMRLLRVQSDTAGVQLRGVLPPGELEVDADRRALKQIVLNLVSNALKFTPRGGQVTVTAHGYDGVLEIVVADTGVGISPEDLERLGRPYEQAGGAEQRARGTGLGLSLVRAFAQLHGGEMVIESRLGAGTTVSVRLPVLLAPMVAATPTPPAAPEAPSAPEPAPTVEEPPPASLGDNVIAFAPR

[6] = Hemolytic activity against sheep RBC at 0.5 mM after 30 mins relative to control; assay type: ADME, cell-based, Ovis aries, Erythrocyte; details: sheep red blood cells (erythrocytes), read-out: Activity
Escherichia coli [7] = experiment: Antibacterial activity against Escherichia coli DC2 after 24 hrs by broth dilution method; assay type: functional; details: DC2, 24 h
Bacillus subtilis [8] = experiment: Antibacterial activity against Bacillus subtilis YB886 after 24 hrs by broth dilution method; assay type: functional; details: YB886, 24 h
Caulobacter vibrioides = experiment: Antibacterial activity against Caulobacter crescentus NA1000 after 24 hrs by broth dilution method; assay type: functional; details: NA1000, 24 h
[9] = molecular target: T4, Cell cycle histidine kinase CckA (Caulobacter vibrioides) (UniProt Q9X688); experiment: Binding affinity to recombinant Caulobacter vibrioides cell cycle histidine kinase CckA delta 3 mutant DHp domain (190 to 562 residues) expressed in Escherichia coli assessed as change in metlting temperature at 30 uM after 2 mins by SYPRO orange dye based DSF assay
T4 sequence (whole entry): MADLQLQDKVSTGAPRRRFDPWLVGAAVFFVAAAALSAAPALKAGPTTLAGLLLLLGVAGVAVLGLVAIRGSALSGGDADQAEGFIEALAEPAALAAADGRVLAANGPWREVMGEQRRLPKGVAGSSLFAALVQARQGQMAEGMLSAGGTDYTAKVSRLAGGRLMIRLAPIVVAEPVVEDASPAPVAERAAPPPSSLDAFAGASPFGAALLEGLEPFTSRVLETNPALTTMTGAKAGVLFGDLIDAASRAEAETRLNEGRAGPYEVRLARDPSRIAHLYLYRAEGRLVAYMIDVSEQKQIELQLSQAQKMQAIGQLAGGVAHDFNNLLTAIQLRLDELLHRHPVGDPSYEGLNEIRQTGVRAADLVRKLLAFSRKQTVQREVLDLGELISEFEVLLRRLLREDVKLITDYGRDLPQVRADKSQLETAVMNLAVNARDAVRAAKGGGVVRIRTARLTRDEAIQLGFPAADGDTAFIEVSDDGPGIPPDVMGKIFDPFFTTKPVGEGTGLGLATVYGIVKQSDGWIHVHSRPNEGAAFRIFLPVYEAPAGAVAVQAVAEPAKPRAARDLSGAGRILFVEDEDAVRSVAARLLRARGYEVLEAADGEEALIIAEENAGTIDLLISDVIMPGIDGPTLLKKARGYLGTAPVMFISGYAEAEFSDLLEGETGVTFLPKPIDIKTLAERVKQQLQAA

[10] = molecular target: T4, Cell cycle histidine kinase CckA (Caulobacter vibrioides); experiment: Inhibition of recombinant Caulobacter vibrioides cell cycle histidine kinase CckA deltaTM mutant DHp domain (70 to 691 residues) expressed in Escherichia coli at 250 uM in presence of varying levels of ATP measured every 60 secs for 2 hrs by PK/LDH enzyme coupled assay relative to control
[11] = molecular target: Cell cycle histidine kinase CckA (Caulobacter vibrioides, UniProt Q9X688); experiment: Inhibition of recombinant Caulobacter vibrioides cell cycle histidine kinase CckA deltaTM mutant DHp domain (70 to 691 residues) expressed in Escherichia coli in presence of varying levels of ATP measured every 60 secs for 2 hrs by PK/LDH enzyme coupled assay
[12] = system: Staphylococcus epidermidis; experiment: Antimicrobial activity against Staphylococcus epidermidis ATCC 35984 after 10 hrs; assay type: functional; details: ATCC 35984, 10 h
[13] = molecular target: T5, Virulence sensor histidine kinase PhoQ (Salmonella typhimurium (strain LT2 / SGSC1412 / ATCC 700720), UniProt P0DM80); experiment: Inhibition of recombinant Salmonella typhimurium N-terminal His6-SUMO-tagged DHp-catalytic domain PhoQ (257 to 487 residues) autophosphorylation expressed in Escherichia coli BL21 (DE3) preincubated for 10 mins followed by [gamma-32P]-ATP addition after 30 mins by phosphotransferase dot blot assay; parameters: species or system Salmonella enterica subsp. enterica serovar Typhimurium
T5 sequence (P0DM80 whole entry): T2 sequence (whole entry)

[14] = molecular target: T2, Virulence sensor histidine kinase PhoQ (Salmonella typhimurium (strain LT2 / SGSC1412 / ATCC 700720)); experiment: Inhibition of recombinant Salmonella typhimurium N-terminal His6-SUMO-tagged PhoQ (257 to 487 residues) expressed in Escherichia coli BL21 (DE3) assessed as enzyme aggregation at 400 uM after 30 mins by native-PAGE analysis; details: Salmonella enterica subsp. enterica serovar Typhimurium
[15] = molecular target: T2, Virulence sensor histidine kinase PhoQ (Salmonella typhimurium (strain LT2 / SGSC1412 / ATCC 700720)); experiment: as §1, with “BL21 (DE3)” for “BL21(DE3)”, “800” for “500”; parameters: scale not given: the % may be the effect or the level left; details: Salmonella enterica subsp. enterica serovar Typhimurium

SMILES | IC50 [1] | MIC (Bacillus subtilis [2]) | MIC (Escherichia coli [3]) | Activity [4] | Activity [5] | hemolysis at 0.5 h, 500 µM [6] | MIC (Escherichia coli [7]) | MIC (Bacillus subtilis [8]) | MIC (Caulobacter vibrioides) | ΔTm [9] | inhibition [10] | IC50 [11] | MIC [12] | IC50 [13] | inhibition [14] | Activity [15]
Nc1nc2ccc(Oc3ccc4nc(N)sc4c3)cc2s1 | 75 µM | 49 to 64 µg/mL (≈ 156 to 204 µM) | 32 to 64 µg/mL (≈ 102 to 204 µM) |  |  |  |  |  |  |  |  |  |  |  |  | 
CC(C)NCCCn1c(Sc2cc3c(cc2I)OCO3)nc2c(N)ncnc21 [PU-H71] |  |  |  | 103% | 122% | 1% | 75 to 225 µM (≈ 38.4 to 115 µg/mL) | > 300 µM | > 300 µM | 0.5 °C | 61% |  |  |  |  | 
Cc1[nH]nc(-c2cc(Cl)c(O)cc2O)c1-c1ccccc1 |  |  |  |  |  | 1% |  |  |  |  |  | 17.5 µM |  |  |  | 
O=C(O)c1ccc(-c2ccc(/C=C3\S/C(=N\c4ccccc4)N(c4ccc(F)cc4)C3=O)s2)cc1 |  |  |  |  |  |  |  |  |  |  |  |  | 0.75 µg/mL (≈ 1.5 µM) |  |  | 
COc1ccc(-c2c(-c3ccc(O)cc3O)n[nH]c2C)cc1 |  |  |  | 76% | 117% | 2% | 75 to 150 µM (≈ 22.2 to 44.4 µg/mL) | > 300 µM | > 300 µM | 2.5 °C |  | 46 µM |  |  |  | 
Cc1[nH]nc(-c2cc(Cl)c(O)cc2O)c1-c1ccc2c(c1)OCCO2 |  |  |  | 35% | 113% | 2% | 75 µM (≈ 26.9 µg/mL) | 112 to 150 µM (≈ 40.4 to 53.8 µg/mL) | 225 µM (≈ 80.7 µg/mL) | 5.3 °C |  | 11.2 to 28 µM |  | 270 µM | inactive | 
Oc1cc(O)c(-c2[nH]ncc2-c2ccc3c(c2)OCCO3)cc1Cl |  |  |  | 63% | 117% |  | 37.5 to 75 µM (≈ 12.9 to 25.9 µg/mL) | 112 to 225 µM (≈ 38.8 to 77.6 µg/mL) | 150 to 225 µM (≈ 51.7 to 77.6 µg/mL) | 3.3 °C |  |  |  |  | inactive | 48%
Oc1cc(O)c(-c2n[nH]cc2-c2ccc3c(c2)OCCO3)cc1Cl |  |  |  |  |  | 1% |  |  |  |  |  | 32.3 to 44 µM |  |  |  | 
CCNC(=O)c1noc(-c2cc(C(C)C)c(O)cc2O)c1-c1ccc(CN2CCOCC2)cc1 [LUMINESPIB] |  |  |  | 73% | 109% | 1% | 37.5 to 75 µM (≈ 17.5 to 34.9 µg/mL) | > 300 µM | > 300 µM | 1.8 °C |  | 7.3 to 28 µM |  |  | inactive | 56%
